Reference: paper PMC7612957 (Science (New York, N.Y.), 2020)
“Also recorded” adds a separate entry of the source. Where two headings read alike, the source gives them in different places. Where no end group is shown, it is not given here.

What was measured:
[1] = tested on: NRP1; conditions: selective NRP1 antagonist, binds the b1 CendR binding pocket; ref [14]; cited from earlier work
[2] = target: T1, NRP1 b1 domain (Homo sapiens, UniProt O14786); assay: ITC competition: EG00229 versus S1 CendR peptide for NRP1 b1; format: binding; conditions: pre-incubation with EG00229, N=3
[3] = tested on: SARS-CoV-2; format: cell-based
[4] = target: T1, NRP1 b1 domain; assay: ITC binding to NRP1 b1 domain
[5] = target: T2, NRP1 b1 domain; assay: ITC
T2 chain: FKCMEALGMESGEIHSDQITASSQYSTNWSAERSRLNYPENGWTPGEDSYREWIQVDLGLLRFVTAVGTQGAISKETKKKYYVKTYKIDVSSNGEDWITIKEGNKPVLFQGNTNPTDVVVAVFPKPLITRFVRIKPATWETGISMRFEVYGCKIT

[6] = target: T2, NRP1 b1 domain; assay: ITC

In the case of `NC(N)=NCCC[C@H](NC(=O)c1sccc1NS(=O)(=O)c1cccc2nsnc12)C(=O)O` [EG00229], the “inhibition of VEGF-A binding” value [1] is listed as “inhibits VEGF-A binding”, the “inhibition of S1 CendR peptide binding to b1” value [2] is listed as “blocks S1 CendR peptide binding; also recorded: inhibited the direct binding between b1 and the S1 CendR peptide” and the “reduction of SARS-CoV-2 infection by EG00229” value [3] is listed as “reduced the efficiency of SARS-CoV-2 infection”. For the same molecule, the Kd ([4]; read-out: Kd for NRP1 b1 domain, EG00229, pH 5.5, N=3, fit with 1-to-1 ratio binding) was 11 µM and the Kd ([4]; read-out: Kd for NRP1 b1 domain, EG00229, pH 7.5, N=3, fit with 1-to-1 ratio binding) was 5.1 µM.

NSPRRAR [S1 CendR peptide] gave a Kd ([4]; affinity for NRP1 b1 domain, pH 7.5, N=3, fit with 1-to-1 ratio binding) of 20.3 µM.

B1: S1 CendR peptide (679NSPRRAR685) (peptide)
peptide: NSPRRAR
B1 gave a Kd [5] of 20.3 µM and a Kd [6] of 13 µM.
